Reference: patent publication US20020115728A1, “Compositions and methods for treating cardiovascular disorders” (priority 2000, published 2002)

Tests used:
[1] = tested on: tocopherol-mediated peroxidation (TMP); experiment: Anti-TMP index; assay type: biochemical
[2] = tested on: α-tocopheroxyl radical; experiment: Tocopheroxyl radical attenuating ability (TRAA); assay type: biochemical; conditions: kobs with (+) or without (−) test compound
[3] = tested on: cGMP production by aortic rings; experiment: cGMP in homogenates of aortic rings (radioimmunoassay); assay type: in vivo, New Zealand White rabbits; conditions: aortic rings of PDA474-treated rabbits, 1 μM ACh
Method: cGMP in the homogenates of aortic ring was determined by a specific radioimmunoassay. […] SNP (1 μM) was used as a positive and buffer vehicle as a negative control. The cGMP content was then determined as described in the commercial assay kit (Cayman Chemical), and results expressed per tissue weight or protein.

[4] = tested on: abdominal aortic rings of balloon-injured rabbits; experiment: Aortic ring study (response to NE, ACh, SNP); assay type: in vivo, New Zealand White rabbits
Text: Following the intervention, the abdominal aorta was removed carefully, cleared of adhering fat and connective tissue, and then cut into 2 mm-wide transverse rings just under second lumbar artery (about 9 cm distal to the common iliac artery and about 5 cm below the celiac artery). This portion of the aorta contains few branches. […] Before the start of the experiments, aortic rings were allowed to equilibrate for one hour under a resting tension of 2.5 g, followed by three washes and re-equilibration of the rings between addition of drugs inducing vaso-response. At the end of each experiment, the aortic ring was weight. The vascular function was assessed in three parts:
2) The response to the endothelium-dependent vasodilator, acetylcholine (ACh). Rings were pre-constricted with PE corresponding to a dose that gave half-maximum contraction (EC50) as calculated from the dose-response curve to NE. ACh (10^−9-10^−5 M) was added after reaching a constant contriction.
3) The response to the endothelium-independent vasodilator, sodium nitroprusside (SNP) (10^−9-10^−5 M) was determined to assess vascular smooth muscle cell function.

[5] = tested on: New Zealand White rabbits with arterial balloon injury; experiment: Serum and plasma lipid profile and antioxidants; assay type: in vivo
Method: (§1) Twelve rabbits were initially fed standard rabbit chow ad libitum for two weeks, before commencement of the nine weeks intervention study. Six rabbits were fed 100 g per day of standard rabbit chow without (control) or with 0.02% PDA474. At the end of week three, the abdominal aorta and right iliac artery were injured by inserting a 3F Fogarty catheter into the right femoral artery and advancing it by about 25 cm to a position just above the diaphragm. The balloon was then inflated with 0.2 mL of saline, and the catheter pulled back three times. Following injury rabbits were placed back onto their respective diet for another six weeks. During the nine weeks, blood was taken from the marginal ear vein of non-fasted rabbits each week for measuring plasma PDA474 and its metabolites. At the end of week nine, the aorta, iliofemoral arteries and a portion of various tissues (liver, kidney, heart, muscle, spleen and abdominal fat) were harvested.

[6] = tested on: intimal thickening in rabbit aorta after arterial balloon injury; experiment: Histological evaluation of aortic lesion formation after arterial balloon injury; assay type: in vivo, New Zealand White rabbits; conditions: rabbits, 0.02% PDA474, six weeks after ABI
Method: as §1
The lower abdominal aorta and iliofemeral arteries were pre-perfusion-fixed with 4% buffered formalin at a constant physiological pressure (˜100 mmHg) before removal and placement in 4% buffered formalin for further fixation for 12 h at room temperature. Two parts of the abdominal aorta were taken for lesion assessment. One part (referred to as A1) was located just above 3rd lumber artery close to the lumber branches, and the other part (referred to as A3) represented the central part between 3rd and 4th lumber arteries, where there are few branches. A1 and A3 specimens were embedded in paraffin and two sections (200 μm apart) were taken from each specimen and stained with Verhoeff hematoxylin.
The intima, media and intima/media ratio (IMR) were calculated by tracing the intimal and medial areas and determining their respective total pixel numbers. High IMR indicate large lesions. In addition, the perimeter of the external elastic lamina and the lumen were quantified using Scion Image Software to assess the extent of vessel remodeling.

[7] = tested on: New Zealand White rabbits with arterial balloon injury; experiment: Liver function (serum AST, ALT, GGT); assay type: in vivo; conditions: for Serum ALT / Serum AST / Serum GGT: 0.02% PDA474
Method: as §1

[8] = PDA474 and metabolite levels in plasma, aorta and major tissues; assay type: in vivo, New Zealand White rabbits
Method: as §1

[9] = 0.02% PDA474, Week 0 (baseline)

## Cc1cc(C(C)(C)C)c(O)c(C(C)(C)C)c1 [BHT]
[1]
  Anti-TMP index: 8-10
[2]
  TRAA (decay of tocopheroxyl radical; kobs(+)/kobs(−)): Immediate decay

## diphenoquinone [H 330/68]
[1]
  Anti-TMP index: 100
[2]
  TRAA (decay of tocopheroxyl radical; kobs(+)/kobs(−)): kobs(+)/kobs(−)˜1

## CC(C)(C)c1cc(SSc2cc(C(C)(C)C)c(O)c(C(C)(C)C)c2)cc(C(C)(C)C)c1O [PDA474]
[3]
  tissue cGMP concentrations in response to ACh vs control: significantly increased
[4]; NE-induced constriction, PDA474-treated rabbits
  muscle tone (g/mg tissue) vs control aortic rings: nearly twice as high
[4]; rings from PDA474-treated rabbits
  SNP-induced relaxation vs control: comparable
[4]; rings from PDA474-treated rabbits, pre-constricted with NE at EC50, maximal response at ˜10^−5M ACh
  ACh-induced relaxation of aortic rings: 61 % relaxation
[4]; rings from balloon-injured rabbits fed 0.02% PDA474
  NE-induced constriction of abdominal aortic rings vs control: significantly increased
[5]; [9]
  Plasma Ascorbate: 34.56 ± 4.36 µmol/L
  Plasma Ch18:2: 0.19 ± 0.02 mmol/L
  Plasma Ch20:2: 0.01 ± 0.00 mmol/L
  Plasma Free Chol: 0.49 ± 0.05 mmol/L
  Plasma Total Chol: 0.69 ± 0.07 mmol/L
  Plasma Urate: 5.56 ± 0.43 µmol/L
  Plasma a-TOH: 4.40 ± 0.24 µmol/L
  Serum HDL Chol: 0.58 ± 0.07 mmol/L
  Serum Triglycerides: 0.95 ± 0.11 mmol/L
[5]; 0.02% PDA474, Week 3 (ABI)
  Plasma Ascorbate: 44.01 ± 5.29 µmol/L
  Plasma Ch18:2: 0.19 ± 0.02 mmol/L
  Plasma Ch20:2: 0.08 ± 0.00 mmol/L
  Plasma Free Chol: 0.42 ± 0.03 mmol/L
  Plasma Total Chol: 0.62 ± 0.03 mmol/L
  Plasma Urate: 5.86 ± 0.65 µmol/L
  Plasma a-TOH: 5.02 ± 0.50 µmol/L
  Serum Cholesterol: 0.77 ± 0.14 mmol/L
  Serum HDL Chol: 0.50 ± 0.09 mmol/L
  Serum Triglycerides: 0.98 ± 0.15 mmol/L
[5]; 0.02% PDA474, Week 6
  Plasma Ch18:2: 0.25 ± 0.10 mmol/L
  Plasma Ch20:2: 0.02 ± 0.01 mmol/L
  Plasma Free Chol: 0.43 ± 0.11 mmol/L
  Plasma Total Chol: 0.70 ± 0.21 mmol/L
  Plasma a-TOH: 4.76 ± 0.64 µmol/L
  Serum Cholesterol: 1.15 ± 0.51 mmol/L
  Serum HDL Chol: 0.51 ± 0.15 mmol/L
  Serum Triglycerides: 0.93 ± 0.08 mmol/L
[5]; 0.02% PDA474, Week 9 (cull)
  Plasma Ascorbate: 46.51 ± 5.49 µmol/L
  Plasma Ch18:2: 0.16 ± 0.02 mmol/L
  Plasma Ch20:2: 0.04 ± 0.00 mmol/L
  Plasma Free Chol: 0.30 ± 0.03 mmol/L
  Plasma Total Chol: 0.46 ± 0.04 mmol/L
  Plasma Urate: 5.24 ± 1.25 µmol/L
  Plasma a-TOH: 3.60 ± 0.31 µmol/L
  Serum Cholesterol: 0.67 ± 0.06 mmol/L
  Serum HDL Chol: 0.42 ± 0.04 mmol/L
  Serum Triglycerides: 0.97 ± 0.13 mmol/L
[5]; rabbits, 0.02% PDA474, 9 weeks
  hypocholesterolemic effect: no hypocholesterolemic effect
[5]; rabbits, chow with 0.02% PDA474, Week 0 (baseline)
  Serum Cholesterol: 1.13 ± 0.15 mmol/L
[6]
  intima-to-media ratio (IMR), Section A1 of the abdominal aorta, vs control: significantly lower
  media areas of abdominal aorta vs control: significantly increased
  vascular remodeling (lumen area, EEL perimeter): did not affect
[7]; Week 0 (baseline)
  Serum ALT: 51.17 ± 3.08 U/L
  Serum AST: 28.17 ± 2.65 U/L
  Serum GGT: 11.50 ± 1.06 U/L
[7]; Week 3 (ABI)
  Serum ALT: 76.00 ± 8.13 U/L
  Serum AST: 63.33 ± 23.47 U/L
  Serum GGT: 12.33 ± 2.29 U/L
[7]; Week 6
  Serum ALT: 72.83 ± 5.19 U/L
  Serum AST: 33.83 ± 8.79 U/L
  Serum GGT: 13.67 ± 0.76 U/L
[7]; Week 9 (cull)
  Serum ALT: 100.67 ± 10.43 U/L
  Serum AST: 69.67 ± 14.34 U/L
  Serum GGT: 12.33 ± 0.99 U/L
[7]; rabbits, 0.02% PDA474, 9 weeks
  effect on liver function: did not affect liver function
[8]; 0.02% PDA474, 9 weeks, abdominal fat
  Fat PDA474 level: 1.99 ± 0.40 nmol/mg P
[8]; 0.02% PDA474, 9 weeks, aorta
  Aorta PDA474 level: 0.59 ± 0.12 nmol/mg P
[8]; 0.02% PDA474, 9 weeks, heart
  Heart PDA474 level: 0.65 ± 0.43 nmol/mg P
[8]; 0.02% PDA474, 9 weeks, kidney
  Kidney PDA474 level: 0.26 ± 0.06 nmol/mg P
[8]; 0.02% PDA474, 9 weeks, liver
  Liver PDA474 level: 7.30 ± 2.82 nmol/mg P
[8]; 0.02% PDA474, 9 weeks, muscle
  Muscle PDA474 level: 0.17 ± 0.06 nmol/mg P
[8]; 0.02% PDA474, 9 weeks, spleen
  Spleen PDA474 level: 0.30 ± 0.13 nmol/mg P
[8]; New Zealand White, rabbit, oral, 0.02 % in chow, rabbits, 0.02% PDA474 in chow, 9 weeks, plasma, read-out: Plasma PDA474 level
  concentration at 9 weeks: 370 ± 40 nM
[8]; rabbits, chow with 0.02% PDA474
  time until plasma concentrations of PDA474 reached steady state: 1˜2 weeks
[8]; rabbits, chow with 0.02% PDA474, estimated
  amount of the administered PDA474 reaching the circulation: < 1%
